Where a name gives a salt, the structure may show the parent alone.

In this assay the test system is human ABCA1 promoter. Description: ABCA1 promoter test (luciferase reporter in stably transfected THP1 cell line). The format is cell-based. The note with it: Homo sapiens, THP-1; ABCA1 reporter cell line (THP1, PMA-differentiated), 24 h incubation, luciferase chemiluminescence; read-out: E50 ABCA1. Here is the method:
The potency of substances which activate expression of the human ABCA1 gene via its promoter is analyzed by using a stably transfected THP1 cell line (human monocyte cell line) which is referred to herein as ABCA1 reporter cell line. It contains a fragment, 3.2 kb in size and stably integrated into the genome, of the human ABCA1 promoter in front of a luciferase reporter element. Expression of the luciferase reporter gene is only low without addition of an ABCA1 expression activator. The substances stimulating ABCA1 expression bring about, via activation of the ABCA1 promoter, an enhanced expression of the luciferase reporter gene. The luciferase which is formed can be detected via an appropriate substrate by means of chemiluminescence.
Construction of the Cell Line
The ABCA1 reporter line was prepared as follows: firstly the neomycin resistance gene (Acc. No.: AJ000156) was introduced into the luciferase reporter plasmid pLG3basic (#1751, Promega) 3′ below the luciferase reporter element. Subsequently, an ABCA1 promoter fragment, 3.2 kb in size and amplified from human genomic DNA (#6550-1, Clontech) by the polymerase chain reaction, was cloned in 5′ above the luciferase reporter element. The reporter plasmid produced in this way was called pGL3BN-ABCA1P. Luciferase expression in this plasmid is controlled by the ABCA1 promoter. Cloning and sequencing of the construct took place in analogy to the description in Sambrook J et al. (Molecular cloning, Cold Spring Harbor Laboratory Press, 1989). For stable transfection into THP1 cells, firstly pGL3BN-ABCA1P was linearized with a restriction endonuclease and then introduced into the THP1 cells as stated in Ausubel, F. M. et al. (Current protocols in molecular biology, Vol. 1-3, John Wiley & Sons, Inc., 1995).
The activity of ABCA1 expression activators is determined in a 3-day test which is described below:
The ABCA1 reporter cell line comprises suspension cells. These are cultured until the concentration is 0.5×10^6 cells/ml in RPMI medium (#52400-025, Invitrogen) which is mixed with the following additions: 10% FCS (fetal calf serum; #16000-044, invitrogen), 0.5 mg/ml Geneticin (#10131-019, invitrogen) and 1% penicillin-streptomycin solution (#15140-122, invitrogen). The culturing takes place in standard cell culture flasks (#353112, Becton Dickinson) in a cell culture incubator at 37° C. in the presence of 5% CO2.
For the ABCA1 promoter test, the suspension cells are centrifuged at 1200 rpm in 50 ml tubes. The supernatant is aspirated off, and the pellet is resuspended in 15 ml of RPMI medium and counted in a cell counter. After dilution to 175 000 cells/ml, 0.1 μg/ml PMA (phorbol 12-myristate 13-acetate, #8139-5MG, Sigma) is added in order to induce differentiation of the monocytic THP1 suspension cells into adherent macrophages. 35 000 cells in each well are seeded in a 96-well microtiter plate with clear plastic base (#3610, Corning Costar). The plates are incubated in a cell culture incubator at 37° C. and 5% CO2 for 24 h.
The ABCA1 expression activators to be tested are dissolved in a concentration of 10 mM in DMSO. This stock solution is diluted in the RPMI medium (mixed with 0.1 μg/ml PMA) described above. Test substances are tested in 11 different concentrations in the range from […] to 330 pM. The medium of the ABCA1 reporter cell line seeded on day 1 is completely removed by aspiration and the diluted test substances are immediately added to the cells. The dilution and addition of the substances takes place with a pipetting robot (Beckman FX). The final volume of the test substances diluted in medium is 100 μl per well of a 96-well microtiter plate. The DMSO concentration in the test is less than 0.1% v/v in order to avoid cytotoxic effects of the solvent.
The test plates are incubated in an incubator at 37° C. and 5% CO2 for 24 h.
The ABCA1 reporter cells treated with the test substances are removed from the incubator and the medium is aspirated off. […]
For `COc1ccc(S(=O)(=O)N2C[C@@H](C(=O)N3CCN(c4cc(Cl)ccc4Cl)CC3)[C@H](c3ccccc3)C2)cc1` [Example 75, [4-(2,5-Dichlorophenyl)piperazin-1-yl]-[1-(4-methoxybenzenesulfonyl)-3,4-trans-4-phenylpyrrolidin-3-yl]methanone trifluoroacetate], the EC50 worked out at 980 nM.

As for `COc1ccc(OC)c(N2CCN(C(=O)[C@@H]3CN(S(=O)(=O)CC(F)(F)F)C[C@H]3c3ccccc3)CC2)c1` [Example 76, [4-(2,5-Dimethoxyphenyl)piperazin-1-yl]-[3,4-trans-4-phenyl-1-(2,2,2-trifluoroethanesulfonyl)pyrrolidin-3-yl]methanone trifluoroacetate], the EC50 amounted to 3120 nM.

As for `COc1ccc(S(=O)(=O)N2C[C@@H](C(=O)N3CCN(c4cc(OC)ccc4OC)CC3)[C@H](c3ccccc3)C2)cc1` [Example 79, [4-(2,5-Dimethoxyphenyl)piperazin-1-yl]-[1-(4-methoxybenzenesulfonyl)-3,4-trans-4-phenylpyrrolidin-3-yl]methanone trifluoroacetate], the EC50 was determined as 1580 nM.

For `COc1ccc(OC)c(N2CCN(C(=O)[C@@H]3CN(S(=O)(=O)c4cccc(C)c4)C[C@H]3c3ccccc3)CC2)c1` [Example 80, [4-2,5-Dimethoxyphenyl)piperazin-1-yl]-[3,4-trans-4-phenyl-1-(toluene-3-sulfonyl)pyrrolidin-3-yl]methanone trifluoroacetate], the EC50 stood at 3150 nM.

On to `COc1ccc(OC)c(N2CCN(C(=O)[C@@H]3CN(S(=O)(=O)c4c(C)noc4C)C[C@H]3c3ccccc3)CC2)c1` [Example 81], for which the EC50 is 1820 nM.

For the compound `COc1cccc(S(=O)(=O)N2C[C@@H](C(=O)N3CCN(c4cc(OC)ccc4OC)CC3)[C@H](c3ccccc3)C2)c1` [Example 82, [4-(2,5-Dimethoxyphenyl)piperazin-1-yl]-[1-(3-methoxybenzenesulfonyl)-3,4-trans-4-phenylpyrrolidin-3-yl]methanone trifluoroacetate], the EC50 came to 1490 nM.

Regarding `COc1ccc(OC)c(N2CCN(C(=O)[C@@H]3CN(S(=O)(=O)c4cccc5nonc45)C[C@H]3c3ccccc3)CC2)c1` [Example 83, [1-(Benzo[1,2,5]oxadiazole-4-sulfonyl)-3,4-trans-4-phenylpyrrolidin-3-yl]-[4-1-(2,5-dimethoxyphenyl)piperazin-1-yl]methanone trifluoroacetate], the EC50 stood at 3000 nM.

Take `COc1ccc(OC)c(N2CCN(C(=O)[C@@H]3CN(S(=O)(=O)c4cccs4)C[C@H]3c3ccccc3)CC2)c1` [Example 84, [4-(2,5-Dimethoxyphenyl)piperazin-1-yl]-[3,4-trans-4-phenyl-1-(thiophene-2-sulfonyl)pyrrolidin-3-yl]methanone trifluoroacetate]: the EC50 was determined as 2670 nM.

As for `Cc1ccccc1S(=O)(=O)N1C[C@@H](C(=O)N2CCN(c3cc(Cl)ccc3Cl)CC2)[C@H](c2ccccc2)C1` [Example 85, [[4-(2,5-Dichlorophenyl)piperazin-1-yl]-[3,4-trans-4-phenyl-1-(toluene-2-sulfonyl)pyrrolidin-3-yl]methanone trifluoroacetate], the EC50 was 260 nM.

With `Cc1ccc(C)c(N2CCN(C(=O)[C@@H]3CN(S(=O)(=O)c4c(C)noc4C)C[C@H]3c3ccc4c(c3)OCO4)CC2)c1` [Example 87, [3,4-trans-4-Benzo[1,3]dioxol-5-yl-1-(3,5-dimethylisoxazole-4-sulfonyl)-pyrrolidin-3-yl]-[4-(2,5-dimethylphenyl)piperazin-1-yl]methanone trifluoroacetate], the EC50 is 1230 nM.

In the case of `COc1cccc(S(=O)(=O)N2C[C@@H](C(=O)N3CCN(c4cc(C)ccc4C)CC3)[C@H](c3ccc4c(c3)OCO4)C2)c1` [Example 88, [3,4-trans-4-Benzo[1,3]dioxol-5-yl-1-(3-methoxybenzenesulfonyl)pyrrolidin-3-yl]-[4-(2,5-dimethylphenyl)piperazin-1-yl]methanone trifluoroacetate], the EC50 came to 2720 nM.

`Cc1ccc(C)c(N2CCN(C(=O)[C@@H]3CN(S(=O)(=O)c4c(C)noc4C)C[C@H]3C)CC2)c1` [Example 90, [[1-(3,5-Dimethylisoxazole-4-sulfonyl)-3,4-trans-4-methylpyrrolidin-3-yl]-[4-(2,5-dimethylphenyl)piperazin-1-yl]methanone trifluoroacetate]: the EC50 was 16800 nM.

On to `COc1cccc(S(=O)(=O)N2C[C@@H](C)[C@H](C(=O)N3CCN(c4cc(C)ccc4C)CC3)C2)c1` [Example 91, [3,4-trans-4-(2,5-Dimethylphenyl)piperazin-1-yl]-[1-(3-methoxybenzene-sulfonyl)-4-methylpyrrolidin-3-yl]methanone trifluoroacetate], for which the EC50 was 2340 nM.

Regarding `Cc1ccc(C)c(N2CCN(C(=O)[C@@H]3CN(S(=O)(=O)c4c(C)noc4C)C[C@H]3Cc3ccccc3)CC2)c1` [Example 93, [3,4-trans-4-Benzyl-1-(3,5-dimethylisoxazole-4-sulfonyl)pyrrolidin-3-yl]-[4-(2,5-dimethylphenyl)piperazin-1-yl]methanone trifluoroacetate], the EC50 stood at 2480 nM.

For the compound `COc1cccc(S(=O)(=O)N2C[C@@H](Cc3ccccc3)[C@H](C(=O)N3CCN(c4cc(C)ccc4C)CC3)C2)c1` [Example 94, [3,4-trans-4-Benzyl-1-(3-methoxybenzenesulfonyl)pyrrolidin-3-yl]-[4-(2,5-dimethylphenyl)piperazin-1-yl]methanone trifluoroacetate], the EC50 was determined as 2930 nM.

For the compound `Cc1ccc(C)c(N2CCN(C(=O)[C@@H]3CN(S(=O)(=O)c4c(C)noc4C)C[C@H]3C(C)C)CC2)c1` [Example 95, [1-(3,5-Dimethyl isoxazole-4-sulfonyl)-3,4-trans-4-isopropylpyrrolidin-3-yl]-[4-(2,5-dimethylphenyl)piperazin-1-yl]methanone trifluoroacetate], the EC50 stood at 4590 nM.

As to `COc1cccc(S(=O)(=O)N2C[C@@H](C(=O)N3CCN(c4cc(C)ccc4C)CC3)[C@H](C(C)C)C2)c1` [Example 96, [4-(2,5-Dimethylphenyl)piperazin-1-yl]-[3,4-trans-4-isopropyl-1-(3-methoxy-benzenesulfonyl)pyrrolidin-3-yl]methanone trifluoroacetate], the EC50 worked out at 3600 nM.

As to `Cc1ccc(C)c(N2CCN(C(=O)[C@@H]3CN(S(=O)(=O)c4c(C)noc4C)C[C@H]3c3ccccc3C)CC2)c1` [Example 98, [1-(3,5-Dimethylisoxazole-4-sulfonyl)-3,4-trans-4-o-tolylpyrrolidin-3-yl]-[4-(2,5-dimethylphenyl)piperazin-1-yl]methanone trifluoroacetate], the EC50 was 401 nM.

Turning to `COc1cccc(S(=O)(=O)N2C[C@@H](C(=O)N3CCN(c4cc(C)ccc4C)CC3)[C@H](c3ccccc3C)C2)c1` [Example 99, [4-(2,5-Dimethylphenyl)piperazin-1-yl]-[1-(3-methoxybenzenesulfonyl)-3,4-trans-4-o-tolylpyrrolidin-3-yl]methanone trifluoroacetate], the EC50 was found to be 707 nM.

Turning to `Cc1ccc(C)c(N2CCN(C(=O)[C@@H]3CN(S(=O)(=O)c4cccnc4)C[C@H]3c3ccccc3C)CC2)c1` [Example 100, [4-(2,5-Dimethylphenyl)piperazin-1-yl]-[1-(pyridine-3-sulfonyl)-3,4-trans-4-o-tolylpyrrolidin-3-yl]methanone trifluoroacetate], the EC50 came to 1350 nM.

(Values after US7468369B2, “Sulfonyl pyrrolidines, method for producing the same and their use as drugs” (Sanofi-Aventis, priority 2005, dated 2008).)
